{
  "source": "patent US6245521A",
  "about": "“Assay for evaluating the affinity of compounds to the glutamate GluR5 receptor” (Eli Lilly and Company, priority 1999, dated 2001)",
  "key": {"human GluR3": {"molecular_target": "T1, human GluR3 (Homo sapiens, UniProt P42263)", "T1 construct": "expressed in transfected cells; host or cells: HEK293", "experiment": "Electrophysiological (patch-clamp) functional studies on transfected HEK293 cells", "type": "cell-based", "settings": "vs 100 mμ AMPA", "description": "(§1) Activity of compounds acting at the kainate receptor, GluR5, can be determined by radiolabeled ligand binding studies at the cloned and expressed human GluR5 receptor (Korczak et al., 1994, Recept. Channels 3; 41-49), and by whole cell voltage clamp electrophysiological recordings of currents in acutely isolated rat dorsal root ganglion neurons (Bleakman et al., 1996, Mol. Pharmacol. 49; 581-585). The selectivity of compounds acting at GluR5 receptors is determined by measurement of activity at other AMPA and kainate receptors including receptor-ligand binding studies and whole-cell voltage clamp electrophysiological recordings of functional activity at human GluR1-GluR4 receptors (Fletcher et al., 1995, Recept. Channels 3; 21-31), at human GluR6 receptors (Hoo et al., Recept. Channels 2;327-338), at AMPA receptors in acutely isolated cerebellar Purkinje neurons (Bleakman et al., 1996, Mol. Pharmacol. 49; 581-585), and other tissues expressing AMPA receptors (Fletcher and Lodge, 1996, Pharmacol. Ther. 70; 65-89).\n(§2) Functional studies were carried out on HEK293 cells stably transfected with human GluR receptors and on acutely isolated dorsal root ganglion neurons (DRG) using patch-clamp technology (Bleakman et al., 1996, Mol. Pharmacol., 49, 581-585). EC50 values (mμ) for ATPA were estimated for GluR1-4 vs 100 mμAMPA, GluR5 vs 100 mμ KA, GluR6 vs 1 mμ KA, and DRG vs 30 mμ KA, with the following results: […]"}, "human GluR1 [1]": {"molecular_target": "T2, human GluR1 (Homo sapiens, UniProt P42261)", "T2 construct": "expressed in transfected cells; host or cells: HEK293", "T2 sequence (P42261 19-906)": "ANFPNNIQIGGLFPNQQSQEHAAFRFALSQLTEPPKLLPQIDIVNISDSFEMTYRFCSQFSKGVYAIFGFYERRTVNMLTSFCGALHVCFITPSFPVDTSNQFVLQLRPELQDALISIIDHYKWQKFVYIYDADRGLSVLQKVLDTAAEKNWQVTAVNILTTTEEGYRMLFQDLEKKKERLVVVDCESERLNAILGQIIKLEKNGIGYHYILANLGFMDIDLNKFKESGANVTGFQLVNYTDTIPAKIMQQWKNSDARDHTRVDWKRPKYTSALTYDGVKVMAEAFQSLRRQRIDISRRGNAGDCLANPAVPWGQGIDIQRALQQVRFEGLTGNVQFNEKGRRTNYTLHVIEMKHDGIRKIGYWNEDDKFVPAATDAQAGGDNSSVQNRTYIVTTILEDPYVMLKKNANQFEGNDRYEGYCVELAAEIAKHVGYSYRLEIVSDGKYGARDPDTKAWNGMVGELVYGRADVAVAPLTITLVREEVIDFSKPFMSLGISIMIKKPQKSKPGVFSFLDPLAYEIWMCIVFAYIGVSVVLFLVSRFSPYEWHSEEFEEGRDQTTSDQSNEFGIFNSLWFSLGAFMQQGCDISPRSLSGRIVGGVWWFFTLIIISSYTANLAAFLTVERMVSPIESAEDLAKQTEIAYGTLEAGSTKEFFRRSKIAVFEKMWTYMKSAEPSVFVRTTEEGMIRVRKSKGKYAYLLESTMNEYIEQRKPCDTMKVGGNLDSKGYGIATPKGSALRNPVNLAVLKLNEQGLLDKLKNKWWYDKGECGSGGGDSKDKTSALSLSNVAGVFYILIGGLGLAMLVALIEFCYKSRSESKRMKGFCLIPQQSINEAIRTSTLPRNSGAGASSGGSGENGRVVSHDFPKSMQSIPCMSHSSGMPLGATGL", "experiment": "Electrophysiological (patch-clamp) functional studies on transfected HEK293 cells", "type": "cell-based", "settings": "vs 100 mμ AMPA", "description": "as §1, §2"}, "human GluR6 [2]": {"molecular_target": "T3, human GluR6 (Homo sapiens, UniProt Q13002)", "T3 construct": "expressed in transfected cells; host or cells: HEK293", "T3 sequence (Q13002 32-908)": "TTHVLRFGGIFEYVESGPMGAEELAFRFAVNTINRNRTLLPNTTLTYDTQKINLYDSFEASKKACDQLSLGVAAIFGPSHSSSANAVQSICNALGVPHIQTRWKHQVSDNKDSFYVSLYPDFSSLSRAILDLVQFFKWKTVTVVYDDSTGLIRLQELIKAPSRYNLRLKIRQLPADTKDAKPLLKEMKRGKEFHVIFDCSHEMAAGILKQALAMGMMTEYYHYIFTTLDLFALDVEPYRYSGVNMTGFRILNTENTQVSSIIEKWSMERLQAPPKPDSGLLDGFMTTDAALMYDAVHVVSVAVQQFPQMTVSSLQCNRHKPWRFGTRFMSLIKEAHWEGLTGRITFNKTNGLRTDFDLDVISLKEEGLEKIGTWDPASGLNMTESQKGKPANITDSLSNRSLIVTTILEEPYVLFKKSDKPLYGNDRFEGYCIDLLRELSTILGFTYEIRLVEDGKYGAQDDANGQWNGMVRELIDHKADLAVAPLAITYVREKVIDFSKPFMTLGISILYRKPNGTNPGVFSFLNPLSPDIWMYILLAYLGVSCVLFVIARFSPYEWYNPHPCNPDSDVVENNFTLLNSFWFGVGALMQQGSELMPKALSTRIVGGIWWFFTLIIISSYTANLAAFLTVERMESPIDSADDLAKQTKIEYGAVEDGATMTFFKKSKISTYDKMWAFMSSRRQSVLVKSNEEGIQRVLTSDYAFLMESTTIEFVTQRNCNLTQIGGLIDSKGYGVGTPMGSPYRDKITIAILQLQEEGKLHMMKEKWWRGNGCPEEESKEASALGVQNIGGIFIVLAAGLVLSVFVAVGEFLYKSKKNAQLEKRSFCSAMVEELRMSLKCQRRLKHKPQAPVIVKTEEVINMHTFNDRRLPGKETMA", "experiment": "Electrophysiological (patch-clamp) functional studies on transfected HEK293 cells", "type": "cell-based", "settings": "vs 1 mμ KA", "description": "as §1, §2"}, "CA1 pyramidal neurons": {"tested_on": "CA1 pyramidal neurons", "experiment": "Electrophysiological test of synaptic transmission in the hippocampus", "type": "cell-based", "settings": "ATPA 1 μM", "from_the_text": "As mentioned above, ATPA modulates synaptic transmission in the hippocampus. […] It is further believed that such selective modulation of GluR5 is likely to show benefits in the treatment of cognitive function."}, "human GluR2 [3]": {"molecular_target": "T4, human GluR2 (Homo sapiens, UniProt P42262)", "T4 construct": "expressed in transfected cells; host or cells: HEK293", "T4 sequence (P42262 25-883)": "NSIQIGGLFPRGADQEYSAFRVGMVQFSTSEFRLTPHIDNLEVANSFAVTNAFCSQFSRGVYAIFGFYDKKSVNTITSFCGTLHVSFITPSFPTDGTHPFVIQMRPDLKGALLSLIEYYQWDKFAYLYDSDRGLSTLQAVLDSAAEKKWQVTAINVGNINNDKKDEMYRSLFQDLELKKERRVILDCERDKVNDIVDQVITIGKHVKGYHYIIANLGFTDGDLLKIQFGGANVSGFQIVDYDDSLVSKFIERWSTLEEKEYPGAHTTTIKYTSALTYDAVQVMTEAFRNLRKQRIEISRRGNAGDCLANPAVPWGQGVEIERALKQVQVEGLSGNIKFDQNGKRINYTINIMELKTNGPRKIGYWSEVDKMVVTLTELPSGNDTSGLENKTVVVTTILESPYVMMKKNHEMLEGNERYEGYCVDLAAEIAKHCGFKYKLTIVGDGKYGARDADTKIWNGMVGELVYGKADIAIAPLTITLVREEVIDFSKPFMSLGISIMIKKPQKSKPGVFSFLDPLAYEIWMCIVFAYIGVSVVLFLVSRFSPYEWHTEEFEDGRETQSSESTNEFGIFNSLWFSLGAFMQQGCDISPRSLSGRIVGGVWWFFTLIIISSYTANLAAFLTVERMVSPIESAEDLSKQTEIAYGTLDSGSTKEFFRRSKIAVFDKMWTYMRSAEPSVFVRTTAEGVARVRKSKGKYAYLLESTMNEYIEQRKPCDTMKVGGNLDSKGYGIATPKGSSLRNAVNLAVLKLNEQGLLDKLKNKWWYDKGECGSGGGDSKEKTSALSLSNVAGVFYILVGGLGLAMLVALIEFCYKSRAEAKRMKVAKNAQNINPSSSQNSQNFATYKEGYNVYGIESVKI", "experiment": "Electrophysiological (patch-clamp) functional studies on transfected HEK293 cells", "type": "cell-based", "settings": "vs 100 mμ AMPA", "description": "as §1\n(§3) Functional studies were carried out on HEK293 cells stably transfected with human GluR receptors and on acutely isolated dorsal root ganglion neurons (DRG) using patch-clamp technology (Bleakman et al., 1996, Mol. Pharmacol., 49, 581-585)."}, "human GluR4 [4]": {"molecular_target": "T5, human GluR4 (Homo sapiens, UniProt P48058)", "T5 construct": "expressed in transfected cells; host or cells: HEK293", "T5 sequence (P48058 21-902)": "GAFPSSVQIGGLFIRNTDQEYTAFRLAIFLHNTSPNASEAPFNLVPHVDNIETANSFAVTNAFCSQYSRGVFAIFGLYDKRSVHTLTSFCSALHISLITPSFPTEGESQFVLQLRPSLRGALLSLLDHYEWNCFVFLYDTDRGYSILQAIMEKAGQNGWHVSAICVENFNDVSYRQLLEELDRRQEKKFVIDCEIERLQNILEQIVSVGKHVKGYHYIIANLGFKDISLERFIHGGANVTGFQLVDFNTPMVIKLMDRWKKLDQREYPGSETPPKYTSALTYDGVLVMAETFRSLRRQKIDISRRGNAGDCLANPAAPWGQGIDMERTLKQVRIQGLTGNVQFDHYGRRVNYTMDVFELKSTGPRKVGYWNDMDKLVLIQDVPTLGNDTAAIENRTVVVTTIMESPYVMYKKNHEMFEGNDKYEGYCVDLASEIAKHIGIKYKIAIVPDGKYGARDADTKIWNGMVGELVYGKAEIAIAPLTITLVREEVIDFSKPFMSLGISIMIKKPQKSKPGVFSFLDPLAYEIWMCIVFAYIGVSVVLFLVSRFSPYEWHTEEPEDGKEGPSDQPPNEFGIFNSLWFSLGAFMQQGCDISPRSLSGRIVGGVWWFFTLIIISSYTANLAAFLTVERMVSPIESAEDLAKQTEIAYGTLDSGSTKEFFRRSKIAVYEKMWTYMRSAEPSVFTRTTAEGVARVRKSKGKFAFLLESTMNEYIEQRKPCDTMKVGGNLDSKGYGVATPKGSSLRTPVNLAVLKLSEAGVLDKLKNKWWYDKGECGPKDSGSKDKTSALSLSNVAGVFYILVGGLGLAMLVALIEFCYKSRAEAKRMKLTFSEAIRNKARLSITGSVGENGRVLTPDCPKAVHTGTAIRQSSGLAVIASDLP", "experiment": "Electrophysiological (patch-clamp) functional studies on transfected HEK293 cells", "type": "cell-based", "settings": "vs 100 mμ AMPA", "description": "as §1, §3"}, "human GluR5 [5]": {"molecular_target": "T6, human GluR5 (Homo sapiens, UniProt P39086)", "T6 construct": "expressed in transfected cells; host or cells: HEK293", "T6 sequence (P39086 31-905 isoform P39086-2 limits assumed)": "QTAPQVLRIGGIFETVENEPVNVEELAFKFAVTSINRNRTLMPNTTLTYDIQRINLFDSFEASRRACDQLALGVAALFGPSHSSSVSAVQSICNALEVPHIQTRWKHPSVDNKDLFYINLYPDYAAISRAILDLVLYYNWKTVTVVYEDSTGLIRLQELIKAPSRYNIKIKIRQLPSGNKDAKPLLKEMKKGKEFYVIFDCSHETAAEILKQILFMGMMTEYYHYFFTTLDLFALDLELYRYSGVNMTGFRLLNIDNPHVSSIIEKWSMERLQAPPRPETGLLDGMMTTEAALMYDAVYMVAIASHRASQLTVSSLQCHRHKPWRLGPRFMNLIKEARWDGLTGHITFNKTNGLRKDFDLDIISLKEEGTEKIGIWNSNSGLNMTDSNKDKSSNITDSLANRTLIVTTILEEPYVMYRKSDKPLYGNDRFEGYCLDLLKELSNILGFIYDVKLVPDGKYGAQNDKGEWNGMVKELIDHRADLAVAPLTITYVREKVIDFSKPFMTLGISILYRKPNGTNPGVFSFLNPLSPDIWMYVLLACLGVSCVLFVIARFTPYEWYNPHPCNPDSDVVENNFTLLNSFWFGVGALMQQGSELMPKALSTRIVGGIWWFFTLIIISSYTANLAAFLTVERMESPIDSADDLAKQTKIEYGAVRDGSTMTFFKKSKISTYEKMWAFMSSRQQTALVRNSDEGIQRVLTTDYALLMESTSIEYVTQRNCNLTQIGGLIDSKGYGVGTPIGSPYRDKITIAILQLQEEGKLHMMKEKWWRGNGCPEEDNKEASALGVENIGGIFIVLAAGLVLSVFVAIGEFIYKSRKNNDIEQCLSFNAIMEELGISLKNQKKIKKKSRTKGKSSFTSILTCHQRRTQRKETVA", "experiment": "Electrophysiological (patch-clamp) functional studies on transfected HEK293 cells", "type": "cell-based", "description": "as §1, §3"}, "human GluR7": {"molecular_target": "T7, human GluR7 (Homo sapiens, UniProt Q13003)", "T7 construct": "expressed in transfected cells; host or cells: HEK293", "experiment": "ATPA selectivity profile in binding studies, displacement of 3[H] kainate", "settings": "HEK293 cells stably transfected with human GluR7", "description": "as §1\n(§4) Cell lines (HEK293 cells) stably transfected with human GluR receptors were employed. Displacement of ^3 [H] AMPA by increasing concentrations of ATPA was used on GluR1-4-expressing cells and ^3 [H] kainate (KA) on GluR5, 6, 7 KA2-expressing cells. Estimated activity (Ki) in nM was as follows."}, "human KA2": {"molecular_target": "T8, human KA2 (Homo sapiens, UniProt Q16478)", "T8 construct": "expressed in transfected cells; host or cells: HEK293", "T8 sequence (Q16478 15-980)": "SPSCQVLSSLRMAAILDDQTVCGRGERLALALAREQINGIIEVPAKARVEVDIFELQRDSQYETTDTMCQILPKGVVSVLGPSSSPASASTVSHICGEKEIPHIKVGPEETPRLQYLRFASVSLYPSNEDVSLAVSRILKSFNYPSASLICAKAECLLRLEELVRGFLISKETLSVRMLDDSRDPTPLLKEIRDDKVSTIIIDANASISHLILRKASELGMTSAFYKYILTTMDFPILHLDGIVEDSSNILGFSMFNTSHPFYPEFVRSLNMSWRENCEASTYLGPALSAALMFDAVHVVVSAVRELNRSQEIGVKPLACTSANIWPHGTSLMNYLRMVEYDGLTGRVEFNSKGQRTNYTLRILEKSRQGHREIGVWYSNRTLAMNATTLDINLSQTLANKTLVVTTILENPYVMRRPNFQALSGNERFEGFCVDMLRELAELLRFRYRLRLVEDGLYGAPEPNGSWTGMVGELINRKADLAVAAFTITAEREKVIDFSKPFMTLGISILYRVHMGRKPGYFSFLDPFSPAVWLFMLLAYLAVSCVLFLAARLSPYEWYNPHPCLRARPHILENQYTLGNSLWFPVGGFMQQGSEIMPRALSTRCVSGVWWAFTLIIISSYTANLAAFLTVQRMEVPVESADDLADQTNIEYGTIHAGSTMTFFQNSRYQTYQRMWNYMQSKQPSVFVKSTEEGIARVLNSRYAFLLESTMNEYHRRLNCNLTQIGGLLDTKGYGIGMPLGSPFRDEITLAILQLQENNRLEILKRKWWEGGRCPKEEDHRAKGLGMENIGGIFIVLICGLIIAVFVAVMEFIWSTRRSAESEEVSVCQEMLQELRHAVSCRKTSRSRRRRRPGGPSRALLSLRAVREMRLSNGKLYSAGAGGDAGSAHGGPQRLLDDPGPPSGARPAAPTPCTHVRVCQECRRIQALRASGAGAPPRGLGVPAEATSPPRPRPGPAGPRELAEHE", "experiment": "ATPA selectivity profile in binding studies, displacement of 3[H] kainate", "settings": "HEK293 cells stably transfected with human KA2", "description": "as §1, §4"}, "human GluR6 [6]": {"molecular_target": "T3, human GluR6", "experiment": "ATPA selectivity profile in binding studies, displacement of 3[H] kainate", "settings": "HEK293 cells stably transfected with human GluR6", "description": "as §1, §4"}, "human GluR2 [7]": {"molecular_target": "T4, human GluR2", "experiment": "ATPA selectivity profile in binding studies, displacement of 3[H] AMPA", "settings": "HEK293 cells stably transfected with human GluR2", "description": "as §1\n(§5) Cell lines (HEK293 cells) stably transfected with human GluR receptors were employed. Displacement of ^3 [H] AMPA by increasing concentrations of ATPA was used on GluR1-4-expressing cells and ^3 [H] kainate (KA) on GluR5, 6, 7 KA2-expressing cells."}, "human GluR4 [8]": {"molecular_target": "T5, human GluR4", "experiment": "ATPA selectivity profile in binding studies, displacement of 3[H] AMPA", "settings": "HEK293 cells stably transfected with human GluR4", "description": "as §1, §5"}, "[9]": {"tested_on": "dorsal root ganglion neurons (DRG)", "experiment": "Patch-clamp functional studies on acutely isolated dorsal root ganglion neurons", "type": "cell-based", "settings": "Rattus norvegicus, Neuron, vs 30 mμ KA", "description": "as §1\nFunctional studies were carried out on HEK293 cells stably transfected with human GluR receptors and on acutely isolated dorsal root ganglion neurons (DRG) using patch-clamp technology (Bleakman et al., 1996, Mol. Pharmacol., 49, 581-585). […]"}, "human GluR5 [10]": {"molecular_target": "T6, human GluR5", "experiment": "ATPA selectivity profile in binding studies, displacement of 3[H] kainate", "description": "as §1, §5"}, "human GluR1 [11]": {"molecular_target": "T2, human GluR1", "experiment": "ATPA selectivity profile in binding studies, displacement of 3[H] AMPA", "settings": "HEK293 cells stably transfected with human GluR1", "description": "as §1, §4"}},
  "data": [
    {"smiles": "CC(C)(C)c1onc(O)c1CC(N)C(=O)O", "note": "(centres unmarked) [ATPA, 2-amino-3-(3-hydroxy-5-tert-butylisoxazol-4-yl)propanoic acid]", "values": [
      {"measurement": "EC50", "setting": "human GluR3", "result": "> 300", "unit": "µM"},
      {"measurement": "EC50", "setting": "human GluR1 [1]", "result": "> 300", "unit": "µM"},
      {"measurement": "EC50", "setting": "human GluR6 [2]", "result": "> 300", "unit": "µM"},
      {"measurement": "effect on synaptic inhibition onto CA1 pyramidal neurons", "setting": "CA1 pyramidal neurons", "result": "reduces synaptic inhibition onto CA1 pyramidal neurons"},
      {"measurement": "EC50", "setting": "human GluR2 [3]", "result": "> 300", "unit": "µM"},
      {"measurement": "EC50", "setting": "human GluR4 [4]", "result": "> 300", "unit": "µM"},
      {"measurement": "EC50", "setting": "human GluR5 [5]; HEK293 cells, human GluR5, patch-clamp, vs 100 mμ KA", "result": "4 ± 0.7", "unit": "µM"},
      {"measurement": "fold less potent on other human AMPA and kainate receptors than on human GluR5 and rat DRG neurons in electrophysiological studies", "setting": "human GluR5 [5]; electrophysiological studies, GluR5 and rat DRG neurons vs other human AMPA and kainate receptors", "result": 100, "unit": "fold"},
      {"measurement": "Estimated activity (Ki) GluR7", "setting": "human GluR7", "result": 14.319, "unit": "µM"},
      {"measurement": "Estimated activity (Ki) KA2", "setting": "human KA2", "result": 38.832, "unit": "µM"},
      {"measurement": "Estimated activity (Ki) GluR6", "setting": "human GluR6 [6]", "result": "> 1000", "unit": "µM"},
      {"measurement": "Estimated activity (Ki) GluR2", "setting": "human GluR2 [7]", "result": 38.616, "unit": "µM"},
      {"measurement": "Estimated activity (Ki) GluR4", "setting": "human GluR4 [8]", "result": 15.747, "unit": "µM"},
      {"measurement": "EC50", "setting": "[9]", "result": 0.56, "unit": "µM"},
      {"measurement": "Estimated activity (Ki) GluR5", "setting": "human GluR5 [10]; HEK293 cells stably transfected with human GluR5, displacement of 3[H] kainate", "result": 0.0031, "unit": "µM"},
      {"measurement": "fold less potent on other human AMPA and kainate receptors than on human GluR5 in binding studies", "setting": "human GluR5 [10]; binding studies, GluR5 vs other human AMPA and kainate receptors", "result": "more than 1000 fold"},
      {"measurement": "Estimated activity (Ki) GluR1", "setting": "human GluR1 [11]", "result": 17.59, "unit": "µM"}
    ]}
  ]
}
